Assay results taken from EP4806892A1, “CEREBLON E3 UBIQUITIN LIGASE INHIBITOR” (GAN & LEE PHARMACEUTICALS CO., LTD., priority 2023, dated 2025).
pIC50: −log10 of the molar value.

Columns and labels:
Type in all cases: cell-based
T-47D cells = assay: T-47D cell proliferation inhibition (CCK-8); settings: Homo sapiens, T47D, 144 h, 6 days
Protocol: The complete culture medium required for breast ductal carcinoma T-47D cells is 1640 (ATCC, Product number: A10491-01) basal medium containing 10% fetal bovine serum. T-47D cells were seeded in 96-well plates at a density of 3,000/well, and different concentrations of PROTAC compounds 1-55 provided in the embodiments of the present invention and the positive control sample ARV-471 (source: Inokai) were prepared to treat the cells and incubated at 37°C, 5% CO2 in a cell culture incubator for 6 days. According to the manufacturer's instructions, the CCK-8 kit (Beyotime, Product number: C0040) was used to detect cell viability. The IC50 of each compound for 6 days was calculated using GraphPadPrism software based on the inhibition rate. Table 6: IC50 value for the inhibition of T-47D cell proliferation by PROTAC compounds and positive control sample

ERα [1] = target: T1, ERα (Homo sapiens, UniProt P03372); assay: ERα degradation in MCF-7 cells (Western blot); settings: 10 nM, 4 hours
T1 sequence (P03372 1-595): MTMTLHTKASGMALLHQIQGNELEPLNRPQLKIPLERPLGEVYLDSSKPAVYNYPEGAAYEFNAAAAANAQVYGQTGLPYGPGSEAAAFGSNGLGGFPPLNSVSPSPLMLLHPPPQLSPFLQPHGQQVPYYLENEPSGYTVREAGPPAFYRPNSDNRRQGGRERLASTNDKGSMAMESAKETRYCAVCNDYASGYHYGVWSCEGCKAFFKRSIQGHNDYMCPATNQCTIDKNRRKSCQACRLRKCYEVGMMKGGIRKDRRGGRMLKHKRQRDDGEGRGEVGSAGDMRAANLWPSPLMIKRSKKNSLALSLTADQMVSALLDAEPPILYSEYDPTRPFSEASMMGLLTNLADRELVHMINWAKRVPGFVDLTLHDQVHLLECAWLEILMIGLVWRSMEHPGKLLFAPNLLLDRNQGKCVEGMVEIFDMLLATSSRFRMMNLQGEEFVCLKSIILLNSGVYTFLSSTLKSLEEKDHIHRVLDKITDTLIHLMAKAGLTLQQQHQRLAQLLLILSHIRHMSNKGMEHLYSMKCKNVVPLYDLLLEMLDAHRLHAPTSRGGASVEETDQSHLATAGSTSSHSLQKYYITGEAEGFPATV
Protocol: MCF-7 (ATCC) cells were cultured in DMEM medium (11995-065, Gibco) containing 10% FBS (10099141C, Gibco) at 37°C and 5% CO2 until they entered the logarithmic growth phase. MCF-7 cells were seeded at a density of 3×10^5 cells/well in a 6-well plate and incubated at 37°C, 5% CO2 for 24 hours. After cell attachment, 1 µL of compound in dimethyl sulfoxide solution (final concentration 0.15-1000 nM) was added and the cells were incubated for another 4 hours at 37°C, 5% CO2. After 4 hours, the culture medium was discarded, and each well was washed once with 1 mL of pre-chilled 1× DPBS. […] The supernatant was carefully collected and analyzed for ERα protein levels by immunoblotting.
Western blotting: The total protein concentration in the collected cell lysate supernatant was determined using the BCA protein concentration assay kit (enhanced) (P0009, Beyotime). Based on the total protein concentration determined by BCA, the protein concentration was adjusted to 1 µg/µL using RIPA lysis buffer and 5× SDS-PAGE protein loading buffer (MB01015, GenScript). […] Protein maps were analyzed for grayscale values using Image Studio Lite software. The grayscale correction value for each sample was calculated using the formula: grayscale correction value = grayscale value of the target protein / grayscale value of the corresponding internal reference. […]

MCF-7 cells = assay: MCF-7 cell proliferation inhibition (CCK-8); settings: Homo sapiens, MCF7, 144 h, 6 days
Protocol: The complete culture medium required for breast cancer MCF-7 cells (source ATCC) is DMEM (gibco, Product number: 11995-065) basal medium containing 10% fetal bovine serum. MCF-7 cells were seeded in 96-well plates at a density of 800 cells/well, and different concentrations of PROTAC compounds 1-55 provided in the embodiments of the present invention and the positive control sample ARV-471 (source: Inokai) were prepared to treat cells. The cells were incubated at 37 °C and 5% CO2 in a cell culture incubator for 6 days. Cell viability was detected using a CCK-8 kit (Beyotime, Product number: C0040) according to the manufacturer's instructions. The IC50 value of each PROTAC compound for 6 days was calculated using GraphPad Prism software based on the inhibition rate. Table 7: IC50 value for the inhibition of MCF-7 cell proliferation by PROTAC compounds of the present disclosure and positive control sample

ERα [2] = target: T1, ERα; assay: ERα degradation in T-47D cells (immunoblot); set-up: host or cells: T-47D; settings: 10 nM, 4 hours
Protocol: T-47D (ATCC) cells were cultured in PRMI-1640 medium (30-2001, ATCC) containing 10% FBS (10099141C, Gibco) at 37°C and 5% CO2 until they entered the logarithmic growth phase. T-47D cells were seeded onto 6-well plates at a density of 3×10^5 cells per well, and incubated at 37°C with 5% CO2 for 24 hours. After cell attachment, 1 µL of compound in dimethyl sulfoxide solution (final concentration 0.15-1000 nM) was added and the cells were incubated for another 4 hours at 37°C, 5% CO2. After 4 hours, the culture medium was discarded, and each well was washed once with 1 mL of pre-chilled 1× DPBS. The cells were then lysed with 50 µL of RIPA lysis buffer (P0013B, Beyotime) and 1× protease inhibitor cocktail (P1005, Beyotime). After incubation on ice for 20 minutes, the cells were centrifuged at 14,000 g at 4°C for 30 minutes. The supernatant was carefully collected and analyzed for ERα protein levels by immunoblotting.

SMILES	pIC50 (T-47D cells)	degradation rate of ERα in MCF-7 cells (ERα [1])	pIC50 (MCF-7 cells)	degradation rate of ERα in T-47D cells (ERα [2])
O=C1CCN(c2ccc3c(c2)OCC[C@H]2CN(C[C@H]4CC[C@@H](OC5CCN(c6ccc([C@@H]7c8ccc(O)cc8CC[C@@H]7c7ccccc7)cc6)CC5)CC4)CCN32)C(=O)N1 [ER-P-2, 1-((S)-3-(((1S,4R)-4-((1-(4-((1R,2S)-6-hydroxy-2-phenyl-1,2,3,4-tetrahydronaphthalen-1-yl)phenyl)piperidin-4-yl)oxy)cyclohexyl)methyl)-2,3,4,4a,5,6-hexahydro-1H-benzo[b]pyrazino[1,2-d][1,4]oxazepin-9-yl)dihydropyrimidine-2,4(1H,3H)-dione]	7.66	greater than or equal to 30%		
O=C1CCN(c2ccc3c(c2)CC2(CCN(C[C@H]4CC[C@@H](OC5CCN(c6ccc([C@@H]7c8ccc(O)cc8CC[C@@H]7c7ccccc7)cc6)CC5)CC4)CC2)O3)C(=O)N1 [ER-P-1, 1-(1'-(((1S,4S)-4-((1-(4-((1R,2S)-6-hydroxy-2-phenyl-1,2,3,4-tetrahydro-naphthalen-1-yl)phenyl)piperidin-4-yl)oxy)cyclohexyl)methyl)-3H-spiro [benzofuran-2,4'-piperidine]-5-yl)dihydropyrimidine-2,4(1H,3H)-dione]			6.07	greater than or equal to 30%
